Legend:
Format in all cases: biochemical
[1] = Reducing power activity assay (ferricyanide reduction, absorbance at 700 nm); settings: regression line over 1-100 μM; sodium phosphate buffer pH 6.6; n=3; read-out: EC50 for reducing power (mean±std. dev.)
Method: The determination of reducing power was performed as described by Yen and Der (J. Am. Oil Chem. Soc. 1993, 70, 383). Reducing power assay determines the reducing potential of the test compound which reacts with potassium ferricyanide (Fe^+3) to form potassium ferrocyanide (Fe^+2), which subsequently reacts with ferric chloride to produce a ferric-ferrous complex that has maximum absorption at 700 nm. Various concentrations (1-500 μM) of test compounds were taken in sodium phosphate buffer (0.1 M, pH 6.6) in 96-well microplates and mixed with potassium ferricyanide (1%). Samples were incubated at 50° C. and equal volume of 10% trichloroacetic acid was added. The upper layer was mixed with deionized water (1:1:2) and ferric chloride (0.1%). The absorbance was read at 700 nm on a Bio-Rad microplate reader (Bio-Rad, Hercules, Calif.). The increase in absorbance indicates increase in reducing power.
The reducing powers of synthetic (S,S)-SDG-1, synthetic (R,R)-SDG-2, natural (S,S)-SDG-1, ascorbic acid, and α-tocopherol were determined by the reduction of K3FeCN6 in the presence of FeCl3, as measured by the absorbance of the resulting ferric-ferrous complex (FIG. 2). […] This allowed the half maximal effective concentration (EC50) for reducing power to be calculated (FIG. 3).

[2] = DPPH radical scavenging assay; settings: for EC50: regression lines over 5-100 μM, 250 μM DPPH, Tris buffer pH 7.4, 20 min, n=3, read-out: DPPH free radical scavenging activity EC50
Method: The ability of the SDGs to scavenge DPPH radicals was assessed as described by Moree et al. (Free Rad. Anitox. 2011, 1, 31) with minor modifications for use in microplates. Briefly, different concentrations of SDG isomers and other test compounds were incubated with 200 μL medium in 96-well microplates containing 0.1 M Tris buffer (pH 7.4) and 250 μM DPPH solution, and kept in the dark for 20 min. The absorbance was read at 517 nm in a Bio-Rad microplate reader. Ascorbic acid and α-tocopherol were used as known antioxidants for comparison. The radical scavenging activity was measured as a decrease in the absorbance of DPPH and calculated using the following equation: Percentage inhibition=[O.D.control−O.D.treated/O.D.control]×100.
The free radical scavenging activities of synthetic (S,S)-SDG-1 and (R,R)-SDG-2 were determined using a 2,2-diphenyl-1-pierylhydrazyl (DPPH) free radical scavenging assay and was compared to those of natural (S,S)-SDG-1, ascorbic acid, and α-tocopherol (FIG. 4). […] Establishing regression lines for the potentials at low- and mid-concentration ranges (5-100 μM) allowed the free radical EC50 scavenging activity of these compounds to be determined.

[3] = Hydroxyl radical scavenging potential (HORAC assay); settings: for Antioxidant capacity Against Hydroxyl Radicals (GAE): HORAC assay, Fenton reaction, gallic acid equivalent, mean±SD, n=3; for Inhibition of fluorescein oxidation by hydroxyl radicals relative to gallic acid: HORAC, gallic acid standard, concentration-dependent
Method: The ability of SDGs to scavenge hydroxyl radicals in a chemical system was evaluated using HORAC Assay kit (# TA30) obtained from Oxford Biomedical Research. Hydroxyl radicals were generated from hydrogen peroxide by Fenton reaction. Oxidation of fluorescein was measured on a fluorescence microplate reader. Antioxidants inhibit fluorescein oxidation. Gallic acid was used as a standard for calibration curve. Calculations used SDG concentration that fit the linear part of the calibration curve. SDG concentrations were used in the range of […]. Antioxidant capacity against hydroxyl radicals was expressed as gallic acid equivalent (GAE).
(§1) The ability of synthetic (S,S)-SDG-1 and (R,R)-SDG-2 to scavenge hydroxyl and peroxyl radicals as manifested by their inhibition of the oxidation of fluorescein was assessed by the hydroxyl radical averting capacity (HORAC, gallic acid standard) and peroxyl radical absorbance capacity assays (ORAC, trolox standard), respectively (Table 1). […] However, synthetic (S,S)-SDG-1 activity differed from natural (S,S)-SDG-1, likely due to trace impurities.
(§2) In Table 1, hydroxyl radicals were generated from hydrogen peroxide by Fenton reaction. Peroxyl radicals were generated by AAPH (2,2′-azobis(2-amidinopropane) dihydrochloride). Oxidation of fluorescein was measured. Calculations used SDG concentrations that fitted the linear part of the calibration curve. The results are presented as mean±standard deviation (n=3).

[4] = Peroxyl radical scavenging potential (ORAC assay); settings: for Antioxidant capacity Against Peroxyl Radicals (TE): ORAC assay, AAPH-generated radicals, Trolox equivalents, mean±SD, n=3; for Inhibition of fluorescein oxidation by peroxyl radicals relative to trolox: ORAC, trolox standard, AAPH
Method: The ability of SDGs to scavenge peroxyl radicals in a chemical system was evaluated using an ORAC assay kit (# STA345) obtained from Cell Biolab (San Diego, Calif.). Peroxyl radicals were generated by AAPH (2,2′-azobis(2-amidinopropanedihydrochloride). Oxidation of fluorescein was measured using a fluorescence microplate reader. Antioxidants inhibit fluorescein oxidation. Trolox was used as a standard for calibration curve. Calculations used SDG concentrations that fit the linear part of the calibration curve. SDG concentrations were used in the range of 8 μM-1 mM. Antioxidant capacity against peroxyl radicals was expressed as Trolox equivalent (TE).
as §1, §2

| EC50 [1] | EC50 [2] | SMILES | Antioxidant capacity Against Hydroxyl Radicals (GAE) [3] | Antioxidant capacity Against Peroxyl Radicals (TE) [4] | Inhibition of fluorescein oxidation by peroxyl radicals relative to trolox [4] | Inhibition of fluorescein oxidation by hydroxyl radicals relative to gallic acid [3] | DPPH inhibition at higher concentrations ([2]; 250-500 μM) |
| --- | --- | --- | --- | --- | --- | --- | --- |
| 1130 ± 88.8 µM | 440 ± 11.8 µM | O=C1O[C@H]([C@@H](O)CO)C(O)=C1O [ascorbic acid, reference compound] | – | – | – | – | – |
| 275 ± 13.2 µM | 83.9 ± 2.8 µM | COc1cc(C[C@H](CO[C@@H]2O[C@H](CO)[C@@H](O)[C@H](O)[C@H]2O)[C@@H](CO[C@@H]2O[C@H](CO)[C@@H](O)[C@H](O)[C@H]2O)Cc2ccc(O)c(OC)c2)ccc1O [natural (S,S)-SDG-1, (S,S)-secoisolariciresinol diglucoside] | 3.68 ± 0.27 GAE | 2.55 ± 0.11 TE | two-fold increase in potency over the trolox standard | – | – |
| 332 ± 21.2 µM | 124 ± 8.67 µM | COc1cc(C[C@@H](CO[C@@H]2O[C@H](CO)[C@@H](O)[C@H](O)[C@H]2O)[C@H](CO[C@@H]2O[C@H](CO)[C@@H](O)[C@H](O)[C@H]2O)Cc2ccc(O)c(OC)c2)ccc1O [synthetic (R,R)-SDG-2, (R,R)-secoisolariciresinol diglucoside] | 1.96 ± 0.27 GAE | 2.20 ± 0.10 TE | two-fold increase in potency over the trolox standard | two-fold higher than gallic acid | – |
| 292 ± 27.7 µM | 158 ± 21.3 µM | COc1cc(C[C@H](CO[C@@H]2O[C@H](CO)[C@@H](O)[C@H](O)[C@H]2O)[C@@H](CO[C@@H]2O[C@H](CO)[C@@H](O)[C@H](O)[C@H]2O)Cc2ccc(O)c(OC)c2)ccc1O [synthetic (S,S)-SDG-1, (S,S)-secoisolariciresinol diglucoside] | 2.09 ± 0.16 GAE | 3.03 ± 0.04 TE | two-fold increase in potency over the trolox standard | two-fold higher than gallic acid | significantly lower than those exerted by (R,R)-SDG-2 and natural (S,S)-SDG-1 |
| 945 ± 148 µM | 133 ± 12.6 µM | Cc1c(C)c2c(c(C)c1O)CC[C@@](C)(CCC[C@H](C)CCC[C@H](C)CCCC(C)C)O2 [α-tocopherol, reference compound] | – | – | – | – | – |
